{
  "source": "patent US8685974B2",
  "about": "(Bayer CropScience AG, priority 2009, dated 2014)",
  "key": {"Phakopsora pachyrhizi": {"tested_on": "Phakopsora pachyrhizi", "settings": "250 ppm active substance; protective; assessment 11 days after inoculation"}, "Puccinia recondita": {"tested_on": "Puccinia recondita", "experiment": "In vivo test on Puccinia recondita (brown rust)", "settings": "dose of 500 ppm; wheat plants; grading 10 days after contamination", "description": "In Vivo Test on Puccinia recondita (Brown Rust)\n(§1) The active ingredients tested are prepared by homogenization in a mixture of acetone/tween/DMSO, then diluted with water to obtain the desired active material.\nWheat plants (Scipion variety) sown on 50/50 peat soil-pozzolana substrate in starter cups and grown at 12° C., are treated at the 1-leaf stage (10 cm tall) by spraying with the aqueous suspension described above.\n(§2) Plants, used as controls, are treated with an aqueous solution not containing the active material.\nAfter 24 hours, the plants are contaminated by spraying the leaves with an aqueous suspension of Puccinia recondita spores (100,000 spores per ml). The spores are collected from a 10-day-old contaminated wheat and are suspended in water containing 2.5 ml/l of tween 80 10%. The contaminated wheat plants are incubated for 24 hours at 20° C. and at 100% relative humidity, and then for 10 days at 20° C. and at 70% relative humidity.\nGrading is carried out 10 days after the contamination, in comparison with the control plants."}, "[1]": {"settings": "for logP value of the minor isomer (in parenthesis in column Isomer ratio [d]): main value of the example measured by method [b]"}, "Peronospora parasitica": {"tested_on": "Peronospora parasitica", "experiment": "In vivo test on Peronospora parasitica (crucifer downy mildew)", "settings": "dose of 500 ppm; cabbage plants; grading 5 days after contamination", "description": "In Vivo Test on Peronospora parasitica (Crucifer Downy Mildew)\nThe active ingredients tested are prepared by homogenization in a mixture of acetone/Tween/DMSO, then diluted with water to obtain the desired active material concentration.\nCabbage plants (Eminence variety) in starter cups, sown on a 50/50 peat soil-pozzolana substrate and grown at 18-20° C., are treated at the cotyledon stage by spraying with the aqueous suspension described above.\nas §2\nAfter 24 hours, the plants are contaminated by spraying them with an aqueous suspension of Peronospora parasitica spores (50 000 spores per ml). The spores are collected from infected plant.\nThe contaminated cabbage plants are incubated for 5 days at 20° C., under a humid atmosphere.\nGrading is carried out 5 days after the contamination, in comparison with the control plants."}, "Botrytis cinerea": {"tested_on": "Botrytis cinerea", "experiment": "In vivo test on Botrytis cinerea (grey mould)", "settings": "dose of 500 ppm; gherkin plants; grading 5/7 days after contamination", "description": "In Vivo Test on Botrytis cinerea (Grey Mould)\nThe active ingredients tested are prepared by homogenization in a mixture of acetone/Tween/DMSO, then diluted with water to obtain the desired active material\nGherkin plants (Vert petit de Paris variety), sown on a 50/50 peat soil-pozzolana substrate in starter cups and grown at 18-20° C., are treated at the cotyledon Z11 stage by spraying with the active ingredient prepared as described above.\nas §2\nAfter 24 hours, the plants are contaminated by depositing drops of an aqueous suspension of Botrytis cinerea spores (150,000 spores per ml) on upper surface of the leaves. The spores are collected from a 15-day-old culture and are suspended in a nutrient solution composed of: • 20 g/L of gelatine; • 50 g/L of D-fructose; • 2 g/L of NH4NO3; • 1 g/L of KH2PO4.\nThe contaminated cucumber plants are settled for 5/7 days in a climatic room at 15-11° C. (day/night) and at 80% relative humidity.\nGrading is carried out 5/7 days after the contamination, in comparison with the control plants."}, "Pyrenophora teres": {"tested_on": "Pyrenophora teres", "experiment": "In vivo test on Pyrenophora teres (barley net blotch)", "settings": "dose of 500 ppm; barley plants; grading 12 days after contamination", "summary_of_the_method": "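Scoring is done 12 days after spore spraying (12,000 spores/ml, from 12-day-old culture), relative to water-treated controls. Inoculation follows by 24 h a preventive spray of the aqueous-diluted formulation onto 1-leaf Plaisant barley raised at 12° C.; infection holds 24 h at about 20° C./100% RH, then 12 days at 80% RH.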"}, "Pyricularia grisea": {"tested_on": "Pyricularia grisea", "settings": "in vivo"}, "Fusarium proliferatum": {"tested_on": "Fusarium proliferatum", "experiment": "Production of fumonisin FB1 by Fusarium proliferatum (microtiter plate, HPLC-MS/MS and OD620)", "type": "cell-based"}, "Rhizoctonia solani": {"tested_on": "Rhizoctonia solani", "experiment": "Rhizoctonia test (rice) / protective", "type": "in vivo", "settings": "500 ppm active compound, protective spray, evaluated 4 days after inoculation", "description": "Rhizoctonia Test (Rice)/Protective\nSolvent: 28.5 parts by weight of acetone\nEmulsifier: 1.5 parts by weight of polyoxyethylene alkyl phenyl ether\nTo produce a suitable preparation of active compound, 1 part by weight of active compound is mixed with the stated amounts of solvent and emulsifier, and the concentrate is diluted with water to the desired concentration.\nTo test for protective activity, young plants are sprayed with the preparation of active compound at the stated rate of application. One day after spraying, the plants are inoculated with a hypha of the causal agent of rice sheath blight (Rhizoctonia solani). The plants are then placed in an incubator at approximately 25° C. and a relative atmospheric humidity of approximately 100%.\nThe test is evaluated 4 days after the inoculation. 0% means an efficacy which corresponds to that of the control, while an efficacy of 100% means that no disease is observed."}, "Sphaerotheca fuliginea": {"tested_on": "Sphaerotheca fuliginea", "experiment": "In vivo test on Sphaerotheca fuliginea (cucurbits powdery mildew)", "settings": "dose of 500 ppm; gherkin plants; grading 12 days after contamination", "description": "In Vivo Test on Sphaerotheca fuliginea (Cucurbits Powdery Mildew)\nas §1\nGherkin plants (Vert petit de Paris variety) in starter cups, sown on a 50/50 peat soil-pozzolana substrate and grown at 20° C./23° C., are treated at the cotyledon Z10 stage by spraying with the aqueous suspension described above. Plants, used as controls, are treated with an aqueous solution not containing the active material.\nAfter 24 hours, the plants are contaminated by spraying them with an aqueous suspension of Sphaerotheca fuliginea spores (100 000 spores per ml). The spores are collected from a contaminated plants. The contaminated gherkin plants are incubated at about 20° C./25° C. and at 60/70% relative humidity.\nGrading (% of efficacy) is carried out 12 days after the contamination, in comparison with the control plants."}, "Pyricularia oryzae": {"tested_on": "Pyricularia oryzae", "settings": "in vivo"}, "Cochliobolus miyabeanus": {"tested_on": "Cochliobolus miyabeanus", "experiment": "Cochliobolus test (rice) / protective", "type": "in vivo", "settings": "500 ppm active compound, protective spray, evaluated 4 days after inoculation"}, "Alternaria solani": {"tested_on": "Alternaria solani", "experiment": "Alternaria test (tomato) / protective", "type": "in vivo", "settings": "500 ppm active compound, protective spray, evaluated 7 days after inoculation", "summary_of_the_method": "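Efficacy scored 7 days after inoculation, where 100% means no infection and 0% matches the untreated control. Test plants were young tomatoes given a protective spray at the stated rate, compound dissolved in DMF plus emulsifier and diluted with water. Incubation at 20° C, 96% relative humidity.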"}, "Aspergillus parasiticus": {"tested_on": "Aspergillus parasiticus", "type": "cell-based", "settings": "for % Inhibition of Aflatoxin at 50 μM: 7 days at 20° C."}, "Fusarium graminearum": {"tested_on": "Fusarium graminearum", "type": "cell-based", "settings": "50 μM; for % Inhibition of DON/AcDON at 50 μM: 7 days at 28° C."}, "[2]": {"settings": "method [c]: LC-MS at pH 7.8, 0.001 molar ammonium hydrogen carbonate, gradient 10% to 95% acetonitrile"}},
  "note": "Like-named read-outs stand apart in the source and are kept apart here. Marks after values point to notes of the source that are not given here.",
  "data": [
    {"smiles": "CCC(C)n1cc(-c2ccncc2)c(-c2ccc(Cl)s2)n1", "note": "(centres unmarked) [Example 8]", "values": [
      {"measurement": "activity level", "setting": "Phakopsora pachyrhizi", "result": 98, "unit": "%"},
      {"measurement": "protection", "setting": "Puccinia recondita", "result": 86, "unit": "%"},
      {"measurement": "log p", "setting": "[1]; pH 2.7", "result": "2.1^[b]"},
      {"measurement": "protection", "setting": "Peronospora parasitica", "result": 92, "unit": "%"},
      {"measurement": "protection", "setting": "Botrytis cinerea", "result": 100, "unit": "%"},
      {"measurement": "protection", "setting": "Pyrenophora teres", "result": 100, "unit": "%"}
    ]},
    {"smiles": "CC(C)n1cc(-c2ccncc2)c(-c2ccc(Cl)s2)n1", "note": "[Example 38]", "values": [
      {"measurement": "protection (% of efficacy)", "setting": "Pyricularia grisea", "result": 98, "unit": "%"},
      {"measurement": "% inhibition FB1 production at 50 μM", "setting": "Fusarium proliferatum; 5 days at 20° C., HPLC-MS/MS", "result": 100, "unit": "%"},
      {"measurement": "% inhibition fungal growth at 50 μM", "setting": "Fusarium proliferatum; Fusarium proliferatum, OD620 at start and after 5 days", "result": 88, "unit": "%"},
      {"measurement": "efficacy", "setting": "Rhizoctonia solani", "result": 97, "unit": "%"},
      {"measurement": "protection (% of efficacy)", "setting": "Sphaerotheca fuliginea", "result": 83, "unit": "%"},
      {"measurement": "protection", "setting": "Puccinia recondita", "result": 72, "unit": "%"},
      {"measurement": "efficacy", "setting": "Pyricularia oryzae", "result": 98, "unit": "%"},
      {"measurement": "efficacy", "setting": "Cochliobolus miyabeanus", "result": 93, "unit": "%"},
      {"measurement": "log p", "setting": "[1]; pH 2.3", "result": "1.63^[a];"},
      {"measurement": "log p", "setting": "[1]; pH 2.7", "result": "1.88^[b]"},
      {"measurement": "protection", "setting": "Peronospora parasitica", "result": 97, "unit": "%"},
      {"measurement": "protection", "setting": "Botrytis cinerea", "result": 100, "unit": "%"}
    ]},
    {"smiles": "Cn1cc(-c2ccncc2)c(-c2ccc(Cl)s2)n1", "note": "[Example 46]", "values": [
      {"measurement": "protection (% of efficacy)", "setting": "Pyricularia grisea", "result": 93, "unit": "%"},
      {"measurement": "efficacy", "setting": "Pyricularia oryzae", "result": 93, "unit": "%"},
      {"measurement": "efficacy", "setting": "Alternaria solani", "result": 95, "unit": "%"},
      {"measurement": "logP value of the minor isomer (in parenthesis in column Isomer ratio [d])", "setting": "[1]; pH 2.7", "result": "(1.17)"},
      {"measurement": "log p", "setting": "[1]; pH 2.7", "result": "1.26^[b]"},
      {"measurement": "protection", "setting": "Peronospora parasitica", "result": 92, "unit": "%"},
      {"measurement": "protection", "setting": "Pyrenophora teres", "result": 70, "unit": "%"}
    ]},
    {"smiles": "C#CCn1cc(-c2ccncc2)c(-c2ccc(Cl)s2)n1", "note": "[Example 47]", "values": [
      {"measurement": "protection (% of efficacy)", "setting": "Pyricularia grisea", "result": 86, "unit": "%"},
      {"measurement": "protection", "setting": "Puccinia recondita", "result": 71, "unit": "%"},
      {"measurement": "efficacy", "setting": "Pyricularia oryzae", "result": 86, "unit": "%"},
      {"measurement": "efficacy", "setting": "Alternaria solani", "result": 95, "unit": "%"},
      {"measurement": "logP value of the minor isomer (in parenthesis in column Isomer ratio [d])", "setting": "[1]; pH 2.7", "result": "(1.36)"},
      {"measurement": "log p", "setting": "[1]; pH 2.7", "result": "1.54^[b]"},
      {"measurement": "protection", "setting": "Peronospora parasitica", "result": 100, "unit": "%"},
      {"measurement": "protection", "setting": "Pyrenophora teres", "result": 70, "unit": "%"}
    ]},
    {"smiles": "Nc1cc(-c2cn(CCF)nc2-c2ccc(Cl)s2)ccn1", "note": "[Example 296]", "values": [
      {"measurement": "% Inhibition of fungal growth at 50 μM", "setting": "Aspergillus parasiticus", "result": 47, "unit": "%"},
      {"measurement": "% Inhibition of Aflatoxin at 50 μM", "setting": "Aspergillus parasiticus", "result": 74, "unit": "%"},
      {"measurement": "log p", "setting": "[1]; pH 2.7", "result": "1.46^[b]"},
      {"measurement": "protection", "setting": "Pyrenophora teres", "result": 70, "unit": "%"}
    ]},
    {"smiles": "CCC(C)n1nc(-c2ccc(Cl)s2)c(-c2ccncc2)c1SC", "note": "(centres unmarked) [Example 298]", "values": [
      {"measurement": "% Inhibition of fungal growth at 50 μM", "setting": "Fusarium graminearum", "result": 38, "unit": "%"},
      {"measurement": "% Inhibition of DON/AcDON at 50 μM", "setting": "Fusarium graminearum", "result": 100, "unit": "%"},
      {"measurement": "efficacy", "setting": "Alternaria solani", "result": 95, "unit": "%"},
      {"measurement": "% Inhibition of fungal growth at 50 μM", "setting": "Aspergillus parasiticus", "result": 64, "unit": "%"},
      {"measurement": "% Inhibition of Aflatoxin at 50 μM", "setting": "Aspergillus parasiticus", "result": 99, "unit": "%"},
      {"measurement": "log p", "setting": "[1]; pH 2.7", "result": "3.35^[b]"}
    ]},
    {"smiles": "CCC(C)n1cc(-c2ccnc(N=C(c3ccccc3)c3ccccc3)c2)c(-c2ccc(Cl)s2)n1", "note": "(centres unmarked) [Example 308]", "values": [
      {"measurement": "log p", "setting": "[2]", "result": "6.5^[c]"}
    ]},
    {"smiles": "CCC(C)n1cc(-c2ccnc(N)c2)c(-c2ccc(Cl)s2)n1", "note": "(centres unmarked) [Example 317]", "values": [
      {"measurement": "% Inhibition of fungal growth at 50 μM", "setting": "Fusarium graminearum", "result": 78, "unit": "%"},
      {"measurement": "% Inhibition of DON/AcDON at 50 μM", "setting": "Fusarium graminearum", "result": 100, "unit": "%"},
      {"measurement": "log p", "setting": "[2]", "result": "3.31^[c]"}
    ]}
  ]
}
